Entries after “also recorded” stand apart in the source; their conditions may differ.
Tests used:
[1] = test system: liver cancer Hep 3B cells; experiment: CCK-8 cytotoxicity / anti-proliferation assay, Hep 3B; assay type: cell-based; details: 4 μM
Experimental: (§1) Cytotoxicity Assay—CCK8 Cancer Cells
The CCK-8 assay was applied to study the cytotoxicity of the peptide drug conjugates and their inhibition of proliferation of cancer cells. First, 2˜10×10^3 cells (depending on the rate of growth of different cell lines) with 100 μL, DMEM media were seeded in normal culture medium into each well of a 96-well plate. The cells were then cultured overnight at 37° C. with 4˜5% CO2. Different doses (4000, 2000, 1000, 500 nM for Hep3B, Hep G2 and MCF7/MBA-MD-231; 1000, 333.3, 100.0, 33.33, 3.333, 1.000, 0.333 nM for MCF7/ADR, 22Rv1, CNE1, HCT116, DLD-1) of Taxol and peptide drugs were added. After 48˜72 hour incubation, CCK-8 solution was added to each well. The cells were then incubated at 37° C. for 4 hours. The optical density was measured at 450/650 nm using a multiscan spectrometer (PerkinElmer's EnSpire Multilabel Plate Reader). The optical density is linearly proportional to the number of living cells in the sample: […]

[2] = test system: Human ovarian cancer (SKOV-3-GFP) cells; experiment: Efficacy in metastatic ovarian cancer model (peritoneal disseminated metastasis); assay type: in vivo, Female athymic nude mice; details: for Average tumor inhibitory rate (%) (MEAN ± SD): Table 10B (Compound 5 set), from final tumor weights
Experimental: The tumor samples were then stored in formalin solution.
Method: The method was the same as described for Biological Example 4.
Endpoint tumor load of each group: At Day 21 after administration, the tumor load of each group was calculated by dissecting and weighing the tumor in the abdominal cavity. The vehicle was the control.
Tumor inhibitory rate (IR): Tumor IR was calculated based on the final average tumor weights according to the formula: IR (%)=(1-treatment(t)/control(c))×100

[3] = test system: HCT116 human colorectal carcinoma cell; experiment: cells; details: read-out: IC50 nM; HCT116 cells
Experimental: as §1
(§2) The CCK-8 assay was applied to study the cytotoxicity of the peptide drug conjugates and their inhibition of proliferation of cancer cells. First, 2˜10×10^3 cells (depending on the rate of growth of different cell lines) with 100 μL, DMEM media were seeded in normal culture medium into each well of a 96-well plate. The cells were then cultured overnight at 37° C. with 4˜5% CO2. Different doses (4000, 2000, 1000, 500 nM for Hep3B, Hep G2 and MCF7/MBA-MD-231; 1000, 333.3, 100.0, 33.33, 3.333, 1.000, 0.333 nM for MCF7/ADR, 22Rv1, CNE1, HCT116, DLD-1) of Taxol and peptide drugs were added. After 48˜72 hour incubation, CCK-8 solution was added to each well. The cells were then incubated at 37° C. for 4 hours. The optical density was measured at 450/650 nm using a multiscan spectrometer (PerkinElmer's EnSpire Multilabel Plate Reader). The optical density is linearly proportional to the number of living cells in the sample:
(§3) The plate layout for MCF7/ADR, 22Rv1, CNE1, HCT116, DLD-1 cell lines is shown below.

[4] = test system: CNE1 nasopharyngeal carcinoma cell line; experiment: cells; details: read-out: IC50 nM; CNE1 cells
Experimental: as §1, §2, §3

[5] = test system: MCF7/ADR multidrug-resistant breast cancer cell; experiment: cells; details: read-out: IC50 nM; MCF7/ADR cells
Experimental: as §1, §2, §3

[6] = test system: DLD-1 colorectal adenocarcinoma cell line; experiment: cells; details: read-out: IC50 nM; DLD-1 cells
Experimental: as §1, §2, §3

[7] = test system: 22Rv1 human prostate carcinoma epithelial cell line; experiment: cells; details: read-out: IC50 nM; 22Rv1 cells
Experimental: as §1, §2, §3

[8] = Safety: animal body weight change after dosing, tumor bearing mice; details: for Weight gain (%): day 0 to day 21, IP Q5D
Description: Animals: Female athymic nude mice were used in this study. The experimental mice were purchased from Shibefu (Beijing) Biotechnology Co., Ltd. (QC number: SCXK Beijing 2019-0010) and maintained in a High Efficiency Particulate Air Filter (HEPA) filtered environment with cages, food and bedding sterilized by irradiation or autoclaving.
Establishment of peritoneal disseminated metastasis model of human ovarian cancer: Human ovarian cancer (SKOV-3-GFP) cells in logarithmic growth period were digested with 0.25% trypsin, rinsed with phosphate buffer (PBS) twice, centrifuged, and suspended with serum-free RPMI1640 medium. Cell suspension (6×10^6/120 μL/mouse) was injected into the peritoneal cavity of each experimental mouse for the establishment of peritoneal disseminated metastasis model of human ovarian cancer.
Groups, testing articles and treatment protocols: Day 4 after cell inoculation, all mice were subjected to systemic imaging using FluorVivo Model-100 (INDEC biosystems, CA, USA). Mice with a small deviation from average tumor load were enrolled in the study. All animals were randomly allocated to the different study groups, 6 mice in each group. Dosing schedule was Q5D (day 0, 5, 10), dosing volume was 10 μl/g, and administration route was intraperitoneal injection. Each dose of Compound 3 or Compound 5 was 9.6 mg/kg (equimolar to 2.5 mg/kg Taxol) and each dose of Taxol was 10 mg/kg. Taxol working solutions were prepared from 6 mg/mL stock solution, while Compounds were dissolved in PBS (pH 7.4) and filtered through 0.22 μm filter.
Monitoring of the experimental mice: During the period of the study, all experimental mice were checked daily for mortality or signs of morbidity. Images of tumor progression were acquired three times a week during the period of the study with the FluorVivo imaging system, Model 100/Mag (INDEC BioSystems, CA, USA). The body weights of the mice were measured three times a week during the period of the study.
Study endpoint: On Day 21 after administration, animals were euthanized by inhalation of excessive anesthetics. All tumors were exposed for imaging (under the same exposure conditions), after which the tumors were removed and weighed with an electronic balance (Sartorius BS 124 S, Germany). The tumor samples were then stored in formalin solution.
Statistical methods used in efficacy evaluation: Comparison of body weights and tumor burdens in different groups were analyzed using EXCEL t-test with an α=0.05 (two-sided).

[9] = separate experiment, 38.4 mg/kg, 3 Q5D doses, tumor bearing mice

CC(=O)N[C@H](CSSCCCC(=O)O[C@@H](C(=O)O[C@H]1C[C@@]2(O)[C@@H](OC(=O)c3ccccc3)[C@@H]3[C@]4(OC(C)=O)CO[C@@H]4C[C@H](O)[C@@]3(C)C(=O)[C@H](OC(C)=O)C(=C1C)C2(C)C)[C@@H](NC(=O)c1ccccc1)c1ccccc1)C(=O)N[C@H](CCCNC(=N)N)C(=O)N[C@H](CCCNC(=N)N)C(=O)N[C@H](CCCNC(=N)N)C(=O)N[C@H](CCCNC(=N)N)C(=O)N[C@H](CCCNC(=N)N)C(=O)N[C@H](CCCNC(=N)N)C(=O)N[C@H](CCCNC(=N)N)C(=O)N[C@H](CCCNC(=N)N)C(N)=O [Compound 5, Ac-D-Cysteine (paclitaxel-4-mercaptobutanoate)-D-Arginine8-NH2]
Anti-proliferation % [1]: 23.2%
acute toxic effect / animal death ([2]; 9.6 mg/kg IP Q5D, ovarian cancer model): caused animal death; also recorded: one animal died at Day 18
tumor inhibitory effect, less effective than Taxol ([2]; 9.6 mg/kg vs Taxol 10 mg/kg): about 10%
mean tumor fluorescence area as % of the Vehicle (PBS) group ([2]; Day 21, Taxol 10 mg/kg, Compound 3 / Compound 5 9.6 mg/kg IP Q5D): 10%
Average tumor area on day 0 (MEAN ± SD) ([2]; Table 8B (Compound 5 set), baseline fluorescence area, Taxol 10 mg/kg, Compd 5 9.6 mg/kg IP Q5D): 24.9 ± 6.6
Average tumor area on day 21 (MEAN ± SD) ([2]; Table 8B (Compound 5 set), fluorescence area, Taxol 10 mg/kg, Compd 5 9.6 mg/kg IP Q5D): 28.7 ± 19.8
Mean tumor mass (g) (MEAN ± SD) ([2]; Table 9A (titled Compound 3 set), Day 21, Taxol 10 mg/kg, conjugate 9.6 mg/kg IP Q5D): 0.178 ± 0.143 g
Average tumor inhibitory rate (%) (MEAN ± SD) ([2]; Day 21, Taxol 10 mg/kg, Compd 5 9.6 mg/kg IP Q5D): 79±11%
Average tumor inhibitory rate (%) (MEAN ± SD) ([2]; Day 21, Taxol 10 mg/kg, Compd 5 9.6 mg/kg IP Q5D, listed as Compd 5): 79 ± 11%
IC50 [3]: 23.5 nM
IC50 [4]: 19.3 nM
IC50 [5]: > 1000 nM
IC50 [6]: 110 nM
IC50 [7]: 29.3 nM
Weight on day 21 (MEAN ± SD) ([8]; Table 7B (Compound 5 set), IP Q5D (day 0, 5, 10), Taxol 10 mg/kg, Compd 5 9.6 mg/kg): 16.9 ± 1.1
Weight on day 0 (MEAN ± SD) ([8]; Table 7B (Compound 5 set), baseline, IP Q5D (day 0, 5, 10), Taxol 10 mg/kg, Compd 5 9.6 mg/kg): 16.9 ± 0.6
Weight gain (%) ([8]; Table 7B (Compound 5 set), Taxol 10 mg/kg, Compd 5 9.6 mg/kg): no change in body weight
Weight gain (%) ([8]; Table 7B (Compound 5 set), Taxol 10 mg/kg, Compd 5 9.6 mg/kg, listed as Compd 5): 0%
animal deaths [8, 9]: One mouse in this group was found dead on Day 18
body weight change on Day 21 [8, 9]: −2%
clinical signs after administration [8, 9]: recumbent and their voluntary activities were reduced
